Reference: patent publication US20230158025A1 (UNIVERSITY OF UTAH RESEARCH FOUNDATION, priority 2020, published 2023)
Where two headings read alike, the source gives them in different places.

Columns and labels:
[1] = in vitro; settings: PAMPA, ADME P: PAMPA permeability (class)
[2] = molecular target: recombinant mouse GALK1 (Mus musculus, UniProt Q9R0N0); test: mGALK1 biochemical activity assay (Kinase-Glo Plus, ATP depletion)
How it was run: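 Recombinant GALK1 (5 nM) with 100 μM galactose; GALK1 turnover read as ATP depletion by Kinase-Glo Plus luminescence. Reaction ran 1 h at room temperature before detection reagent was added.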

[3] = PAMPA
[4] = rat
[5] = in vitro; settings: rat, microsomes
[6] = molecular target: T1, hGALK1m (Homo sapiens, UniProt P51570, E253A/K252A); test: in vitro hGALK1 activity assay of the structure-based optimisation (Example 12, Tables 17-20); assay type: biochemical
T1 construct: made in house; host or cells: E. coli HMS174

[7] = molecular target: recombinant human GALK1 (Homo sapiens, UniProt P51570); test: hGALK1 biochemical activity assay (Kinase-Glo Plus, ATP depletion)
How it was run: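 Turnover is measured as ATP depletion by Kinase-Glo Plus luminescence after a 1 h room-temperature reaction. Compounds span 11 concentrations, 57.4 μM–0.97 nM, in final 20 mM HEPES pH 8.0 with 5 mM MgCl2. The substrate solution held 35 μM ATP; the added solution held 5 nM human or mouse GALK1 and 100 μM galactose.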

[8] = human liver microsome stability (HLM); assay type: in vitro ADME; settings: GALK lead profile
[9] = aqueous kinetic solubility; settings: aqueous kinetic solubility
[10] = system: skin fibroblasts derived from GALT-deficient patients; test: Gal-1-p accumulation assay in patient fibroblasts; assay type: cell-based, human
Experimental: Skin fibroblasts derived from GALT-deficient patients were maintained in galactose-free culture medium supplemented with 10% hexose-free fetal bovine serum (FBS). Before galactose challenge, inhibitors were added to the medium at designated concentrations and incubated at 37° C. for 4 hr. Then, galactose was added to reach 0.05% in the medium. After 4 hr of challenge, cells were collected and washed twice with PBS. Then, the cells were disrupted in 300 μL of ice-cold hypotonic buffer containing 25 mM Tris-HCl (pH 7.4), 25 mM NaCl, 0.5 mM EDTA, and protease inhibitor cocktail (Roche). The lysates were passed five times through a 30-gauge needle and centrifuged for 20 min at 16,000×g and 4° C. A small portion of supernatant was saved for protein concentration measurement. Gal-1-p level was measured using the alkaline phosphatase coupled method previously described. The gal-1-p concentration was normalized to protein concentration. The assay was analyzed using the paired t-test to determine the statistical difference between the compound treated cells and corresponding DMSO control. The two-sided p value less than 0.05 was considered statistically significant.
For measurement of cellular Gal-1P reduction, compounds at different concentrations were added to cultured patient fibroblast at 80% confluency. After incubating the compounds for 16 hours, 10 mM galactose was added to the culture. After another 4-hours, cells were washed with cold PBS buffer 3× and harvested for gal-1P measurement, according to previously published method. Liu et al., Bioorg. Med. Chem. Lett. 25(3): 721-727 (2015).
The in vitro hGALK1 activity assay was performed as previously described. Liu et al., Bioorg. Med. Chem. Lett. 25(3): 721-727 (2015). For the measurement of cellular Gal-1P reduction, compounds at different concentrations were added to cultured patient fibroblast at 80% confluency. After incubating the compounds for 16 hours, 10 mM galactose was added to the culture. […]

[11] = PAMPA permeability
[12] = mouse liver microsome stability (MLM); assay type: in vitro ADME; settings: GALK lead profile
[13] = rat microsomal stability (RLM)
[14] = recombinant mouse GALK1, Kinase-Glo Plus ATP depletion, read-out: mGALK
[15] = recombinant human GALK1, Kinase-Glo Plus ATP depletion, read-out: hGALK

Chain of recombinant mouse GALK1 (Q9R0N0 whole entry): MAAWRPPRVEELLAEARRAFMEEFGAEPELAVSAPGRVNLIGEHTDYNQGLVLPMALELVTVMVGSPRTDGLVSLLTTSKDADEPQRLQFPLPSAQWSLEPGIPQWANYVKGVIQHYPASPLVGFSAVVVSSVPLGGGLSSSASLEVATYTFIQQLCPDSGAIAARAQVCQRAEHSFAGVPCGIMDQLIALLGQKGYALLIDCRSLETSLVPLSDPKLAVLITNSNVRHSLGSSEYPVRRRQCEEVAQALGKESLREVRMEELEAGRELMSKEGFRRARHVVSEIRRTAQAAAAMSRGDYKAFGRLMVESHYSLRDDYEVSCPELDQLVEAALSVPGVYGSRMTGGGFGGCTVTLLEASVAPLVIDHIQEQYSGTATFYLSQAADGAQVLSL
T1 sequence (P51570 whole entry K252A/E253A): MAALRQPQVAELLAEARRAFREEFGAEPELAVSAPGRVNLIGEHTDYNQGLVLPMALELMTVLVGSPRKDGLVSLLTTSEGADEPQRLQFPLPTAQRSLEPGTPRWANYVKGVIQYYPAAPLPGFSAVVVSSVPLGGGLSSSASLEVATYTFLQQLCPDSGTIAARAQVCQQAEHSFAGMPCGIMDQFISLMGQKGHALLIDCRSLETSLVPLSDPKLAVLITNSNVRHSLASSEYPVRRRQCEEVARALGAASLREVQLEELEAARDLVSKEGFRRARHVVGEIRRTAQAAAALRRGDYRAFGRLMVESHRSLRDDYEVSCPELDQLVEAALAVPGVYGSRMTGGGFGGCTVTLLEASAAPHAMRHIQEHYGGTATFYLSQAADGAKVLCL
Chain of recombinant human GALK1 (P51570 whole entry): as the sequence (P51570 whole entry K252A/E253A) above, with A252K, A253E counted along it

CC1=C(C(=O)Nc2cc(C(=O)O)ccn2)C(c2ccccc2Cl)N=C(Nc2nc3cc(Cl)ccc3o2)N1 (stereo not drawn) [Compound 9, 2-(2-((5-chlorobenzo[d]oxazol-2-yl)amino)-4-(2-chlorophenyl)-6-methyl-1,4-dihydropyrimidine-5-carboxamido)isonicotinic acid]
Papp [1]: < 10 ×10⁻⁶ cm/s
IC50 ([2]; Tables 2-15, 35 μM ATP, 100 μM galactose, 1 h, bracketed figure after some values is undefined and not reported, read-out: mGALK IC50): 6.11 µM
IC50 [2, 14]: 6.11 µM
Perm. (1 × 10^−6 cm/sec) [3]: <1 1 × 10^−6 cm/sec
Metab. Stabil. (m) [4]: >30 m
half-life [5]: < 10 min
Emax ([6]; Tables 18-19, read-out: Max Response (%)): 100%
IC50 ([6]; Tables 18-19 and text of Example 12): 1700 nM
IC50 [7, 15]: 2430 nM

CC1=C(C(=O)NCc2cnn(C)c2)C(c2ccc(C)cc2Cl)N=C(Nc2nc3ccc(F)c(N)c3o2)N1 (stereo not drawn) [Compound 126, 2-((7-amino-6-fluorobenzo[d]oxazol-2-yl)amino)-4-(2-chloro-4-methylphenyl)-6-methyl-N-((1-methyl-1H-pyrazol-4-yl)methyl)-1,4-dihydropyrimidine-5-carboxamide]
HLM t [8]: 47 min
Sol. [9]: 1.27 µg/mL
effect on Gal-1P accumulation (FIG. 5A) ([10]; CG patient fibroblasts): inhibited Gal-1P accumulation
change of Gal-1P inhibition with concentration (FIG. 5B) ([10]; concentration increased from 0.5 μM to 1 μM): significantly greater inhibition of Gal-1P accumulation
change of Gal-1P inhibition with concentration (FIG. 5B) ([10]; concentration increased from 1 μM to 3 μM): did not increase significantly
IC50 [2, 14]: 0.69 µM
PAMPA ([11]; GALK lead profile, two values given): 485 10^−6 cm/s
Perm. (1 × 10^−6 cm/sec) ([11]; PAMPA): 459.1 1 × 10^−6 cm/sec
Papp ([11]; PAMPA, GALK lead profile, two values given): 390 ×10⁻⁶ cm/s
MLM t [12]: 13 min
IC50 ([6]; Tables 18-20 and text of Example 12): 14 nM
IC50 ([7]; Tables 2-15, 35 μM ATP, 100 μM galactose, 1 h, bracketed figure after some values (e.g. −1.2) is undefined and not reported, read-out: hGALK IC50): 50 nM
IC50 [7, 15]: 50 nM
RLM t ([13]; GALK lead profile): 16 min
Metab. Stabil. (m) ([13]; microsomal stability half-life): 17.1 m
